The values that follow come from patent US7659263B2, “Thienopyrrole compound and use thereof as HCV polymerase inhibitor” (Japan Tobacco Inc., priority 2004, dated 2010).

The target of one test is T1, NS5B 1b (Hepatitis C virus genotype 1b, UniProt P26663).
T1 construct: a region encoding NS5B (J Virol 1991 March, 65(3), 1105-13, 544 amino acids after deletion of 47 amino acids on the C-terminal); 6 His (C); made in house; host or cells: Escherichia coli
Put plainly: Assay of enzyme (HCV polymerase) inhibitory activity, NS5B 1b. It counts as biochemical. The source says:
The evaluation of the HCV polymerase inhibitory activity of the compound of the present invention is explained in the following. This polymerase is an enzyme coded for by the non-structural protein region called NS5B on the genome RNA of HCV (EMBO J., 15:12-22, 1996).
i) Preparation of enzyme (HCV polymerase)
Using, as a template, a cDNA clone corresponding to the full length genome RNA of HCV BK strain obtained from the blood of a patient with hepatitis C, a region encoding NS5B (J Virol 1991 March, 65(3), 1105-13, 544 amino acids after deletion of 47 amino acids on the C-terminal) was amplified by PCR. The objective gene was prepared by adding a 6 His tag {base pair encoding 6 continuous histidine (His)} to the 3′ end thereof and transformed to Escherichia coli. The Escherichia coli capable of producing the objective protein was cultured. The obtained cells were suspended in a buffer solution and crushed in a microfluidizer. The supernatant was obtained by centrifugation and applied to various column chromatographys {mono-S, Sephacryl S-200 (Pharmacia)}, inclusive of metal chelate chromatography, to give a standard enzyme product.
ii) Synthesis of Substrate RNA
Using a synthetic primer designed based on the sequence of HCV genomic 3′ untranslated region, a DNA fragment (148 bp) containing polyU and 3′X sequence was entirely synthesized and cloned into plasmid pBluescript SK II(+) (Stratagene). The cDNA encoding full length NS5B, which was prepared in i) above, was digested with restriction enzyme KpnI to give a cDNA fragment containing the nucleotide sequence of from the restriction enzyme cleavage site to the termination codon. This cDNA fragment was inserted into the upstream of 3′ untranslated region of the DNA in pBluescript SK II(+) and ligated. The about 450 bp inserted DNA sequence was used as a template in the preparation of substrate RNA. This plasmid was cleaved immediately after the 3′X sequence, linearized and purified by phenol-chloroform treatment and ethanol precipitation to give DNA.
RNA was synthesized (37° C., 3 hr) by run-off method using this purified DNA as a template, a promoter of pBluescript SK II(+), MEGAscript RNA synthesis kit (Ambion) and T7 RNA polymerase. DNase I was added and the mixture was incubated for 1 hr. The template DNA was removed by decomposition to give a crude RNA product. This crude product was treated with phenol-chloroform and purified by ethanol precipitation to give the objective substrate RNA.
This RNA was applied to formaldehyde denaturation agarose gel electrophoresis to confirm the quality thereof and preserved at −80° C. iii) Assay of enzyme (HCV polymerase) inhibitory activity A test substance (compound of the present invention) and a reaction mixture (30 μl) having the following composition were reacted at 25° C. for 90 min.
10% Trichloroacetic acid at 4° C. and 1% sodium pyrophosphate solution (150 μl) were added to this reaction mixture to stop the reaction. The reaction mixture was left standing in ice for 15 min to insolubilize RNA. This RNA was trapped on a glass filter (Whatman GF/C and the like) upon filtration by suction. This filter was washed with a solution containing 1% trichloroacetic acid and 0.1% sodium pyrophosphate, washed with 90% ethanol and dried. A liquid scintillation cocktail (Packard) was added and the radioactivity of RNA synthesized by the enzyme reaction was measured on a liquid scintillation counter.
The HCV polymerase inhibitory activity (IC50) of the compound of the present invention was calculated from the values of radioactivity of the enzyme reaction with and without the 20 test substance. […]

The target of the next test is T2, NS5B 1a (Hepatitis C virus genotype 1a, UniProt P27958).
T2 construct: NS5B 1a
T2 sequence (P27958 2421-3011): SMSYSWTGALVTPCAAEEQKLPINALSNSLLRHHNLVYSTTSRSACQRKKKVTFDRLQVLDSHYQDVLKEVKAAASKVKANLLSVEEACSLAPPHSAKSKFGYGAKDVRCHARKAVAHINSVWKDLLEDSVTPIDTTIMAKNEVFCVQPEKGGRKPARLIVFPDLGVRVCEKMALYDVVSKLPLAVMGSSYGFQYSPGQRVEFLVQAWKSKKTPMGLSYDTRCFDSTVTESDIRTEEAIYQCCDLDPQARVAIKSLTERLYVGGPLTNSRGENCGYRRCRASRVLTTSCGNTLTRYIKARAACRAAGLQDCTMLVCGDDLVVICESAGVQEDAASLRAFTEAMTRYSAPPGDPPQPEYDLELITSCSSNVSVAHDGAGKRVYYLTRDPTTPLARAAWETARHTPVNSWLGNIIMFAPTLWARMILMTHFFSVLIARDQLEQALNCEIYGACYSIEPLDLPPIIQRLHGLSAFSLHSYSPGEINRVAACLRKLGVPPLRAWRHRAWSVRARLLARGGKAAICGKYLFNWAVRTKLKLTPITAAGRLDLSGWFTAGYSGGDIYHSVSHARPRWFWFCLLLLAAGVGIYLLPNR
Put plainly: Assay of enzyme (HCV polymerase) inhibitory activity, NS5B 1a. The format is biochemical. The note with it: HCV polymerase NS5B 1a; [3H]UTP incorporation, 25° C., 90 min.

Where a name gives a salt, the structure may show the parent alone. Where only a bound is given, the exact number is not on record here.

T1 sequence (P26663 2420-2963): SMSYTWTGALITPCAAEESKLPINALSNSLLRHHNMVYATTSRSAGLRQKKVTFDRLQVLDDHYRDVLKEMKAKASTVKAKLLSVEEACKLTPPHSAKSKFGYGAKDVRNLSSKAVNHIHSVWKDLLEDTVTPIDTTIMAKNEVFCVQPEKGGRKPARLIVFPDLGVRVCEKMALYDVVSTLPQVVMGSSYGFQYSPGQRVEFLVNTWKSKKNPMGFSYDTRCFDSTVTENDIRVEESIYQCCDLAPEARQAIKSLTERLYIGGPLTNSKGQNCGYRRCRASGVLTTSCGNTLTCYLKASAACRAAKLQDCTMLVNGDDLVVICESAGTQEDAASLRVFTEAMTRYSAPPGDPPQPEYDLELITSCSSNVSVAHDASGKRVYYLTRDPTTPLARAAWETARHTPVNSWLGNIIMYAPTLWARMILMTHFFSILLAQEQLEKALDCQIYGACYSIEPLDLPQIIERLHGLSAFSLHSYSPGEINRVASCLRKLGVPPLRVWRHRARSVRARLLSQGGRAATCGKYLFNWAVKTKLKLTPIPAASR

As for `CS(=O)(=O)c1ccc(N2CCOCC2)c(COc2ccc3c(c2)OCCn2c-3c(C3CCCCC3)c3sc(C(=O)O)cc32)c1` [Example 3, 11-cyclohexyl-8-[5-methanesulfonyl-2-(morpholin-4-yl)benzyloxy]-4,5-dihydro-6-oxa-1-thia-3b-azabenzo[e]cyclopenta[a]azulene-2-carboxylic acid], the figures for the IC50 on NS5B 1b and against NS5B 1a were less than 10 nM and 10 to 100 nM, respectively.
For `CS(=O)(=O)c1ccc(N2CCOCC2)c(COc2ccc3c(c2)OCCn2c-3c(C3CCCCC3)c3sc(C(N)=O)cc32)c1` [Example 4, 11-cyclohexyl-8-[5-methanesulfonyl-2-(morpholin-4-yl)benzyloxy]-4,5-dihydro-6-oxa-1-thia-3b-azabenzo[e]cyclopenta[a]azulene-2-carboxamide], in that order: less than 10 nM and 10 to 100 nM.
Taken in the same sequence, the figures for `O=C(O)c1cc2c(s1)c(C1CCCCC1)c1n2CCN(CCN2CCCCC2)c2ccccc2-1` [Example 8, 11-cyclohexyl-6-[2-(piperidin-1-yl)ethyl]-5,6-dihydro-4H-1-thia-3b,6-diazabenzo[e]cyclopenta[a]azulene-2-carboxylic acid dihydrochloride] were 10 to 100 nM and 10 to 100 nM.
Taken in the same sequence, the figures for `CC(C)(C)OC(=O)N1CCN(CCN2CCn3c(c(C4CCCCC4)c4sc(C(=O)O)cc43)-c3ccccc32)CC1` [Example 11, 6-[2-(4-tert-butoxycarbonylpiperazin-1-yl)ethyl]-11-cyclohexyl-5,6-dihydro-4H-1-thia-3b,6-diazabenzo[e]cyclopenta[a]azulene-2-carboxylic acid hydrochloride] were 10 to 100 nM and 10 to 100 nM.
`CCN1CCN(C(=O)CN2CCn3c(c(C4CCCCC4)c4sc(C(=O)O)cc43)-c3ccccc32)CC1` [Example 14, 11-cyclohexyl-6-[2-(4-ethylpiperazin-1-yl)-2-oxoethyl]-5,6-dihydro-4H-1-thia-3b,6-diazabenzo[e]cyclopenta[a]azulene-2-carboxylic acid dihydrochloride]: the IC50 against NS5B 1b and against NS5B 1a was 10 to 100 nM each time.
As to `O=C(O)c1cc2c(s1)c(C1CCCCC1)c1n2CCOc2ccccc2-1` [Example 15, 11-cyclohexyl-4,5-dihydro-6-oxa-1-thia-3b-azabenzo[e]cyclopenta[a]azulene-2-carboxylic acid], the IC50 at NS5B 1b lay within 10 to 100 nM; against NS5B 1a, 100 to 1000 nM.
For `O=C(O)c1cc2c(s1)c(C1CCCCC1)c1n2CCOc2cc(OCc3cc(N4CCCC4=O)ccc3N3CCOCC3)ccc2-1` [Example 16, 11-cyclohexyl-8-[2-(morpholin-4-yl)-5-(2-oxopyrrolidin-1-yl)benzyloxy]-4,5-dihydro-6-oxa-1-thia-3b-azabenzo[e]cyclopenta[a]azulene-2-carboxylic acid hydrochloride], in that order: less than 10 nM and 10 to 100 nM.
For `COC(=O)N1CCCC(Oc2ccc3c(c2)OCCn2c-3c(C3CCCCC3)c3sc(C(=O)O)cc32)C1` (stereo not drawn) [Example 17, 11-cyclohexyl-8-(1-methoxycarbonylpiperidin-3-yloxy)-4,5-dihydro-6-oxa-1-thia-3b-azabenzo[e]cyclopenta[a]azulene-2-carboxylic acid], in that order: 10 to 100 nM and 10 to 100 nM.
For `CS(=O)(=O)N1CCN(c2ccc(N3CCCC3=O)cc2COc2ccc3c(c2)OCCn2c-3c(C3CCCCC3)c3sc(C(=O)O)cc32)CC1` [Example 18, 11-cyclohexyl-8-[2-(4-methanesulfonylpiperazin-1-yl)-5-(2-oxopyrrolidin-1-yl)benzyloxy]-4,5-dihydro-6-oxa-1-thia-3b-azabenzo[e]cyclopenta[a]azulene-2-carboxylic acid], in that order: less than 10 nM and less than 10 nM.
Regarding `Cc1ccc2c(c1)N(CCN1CCCCC1)CCn1c-2c(C2CCCCC2)c2sc(C(=O)O)cc21` [Example 19, 11-cyclohexyl-8-methyl-6-[2-(piperidin-1-yl)ethyl]-5,6-dihydro-4H-1-thia-3b,6-diazabenzo[e]cyclopenta[a]azulene-2-carboxylic acid dihydrochloride], the IC50 at NS5B 1b is less than 10 nM; against NS5B 1a, 10 to 100 nM.
For `O=C(O)c1cc2c(s1)c(C1CCCCC1)c1n2CCN(CCN2CCCCC2)c2cc(Cl)ccc2-1` [Example 20, 8-chloro-11-cyclohexyl-6-[2-(piperidin-1-yl)ethyl]-5,6-dihydro-4H-1-thia-3b,6-diazabenzo[e]cyclopenta[a]azulene-2-carboxylic acid dihydrochloride], in that order: 10 to 100 nM and 10 to 100 nM.
Take `O=C(O)c1cc2c(s1)c(C1CCCCC1)c1n2CCN(CCN2CCCCCCC2)c2ccccc2-1` [Example 21, 6-[2-(azocan-1-yl)ethyl]-11-cyclohexyl-5,6-dihydro-4H-1-thia-3b,6-diazabenzo[e]cyclopenta[a]azulene-2-carboxylic acid dihydrochloride]: the figures for the IC50 on NS5B 1b and at NS5B 1a were less than 10 nM and 10 to 100 nM, respectively.
Taken in the same sequence, the figures for `CC1CCCN(CCN2CCn3c(c(C4CCCCC4)c4sc(C(=O)O)cc43)-c3ccccc32)C1` (stereo not drawn) [Example 22, 11-cyclohexyl-6-[2-(3-methylpiperidin-1-yl)ethyl]-5,6-dihydro-4H-1-thia-3b,6-diazabenzo[e]cyclopenta[a]azulene-2-carboxylic acid dihydrochloride] were 10 to 100 nM and 10 to 100 nM.
Turning to `COCC[C@@H]1CCCN(CCN2CCn3c(c(C4CCCCC4)c4sc(C(=O)O)cc43)-c3ccccc32)C1` [Example 23, (S)-11-cyclohexyl-6-{2-[3-(2-methoxyethyl)piperidin-1-yl]ethyl)-5,6-dihydro-4H-1-thia-3b,6-diazabenzo[e]cyclopenta[a]azulene-2-carboxylic acid dihydrochloride], the IC50 at NS5B 1b and on NS5B 1a was 10 to 100 nM in each case.
Regarding `O=C(O)c1cc2c(s1)c(C1CCCCC1)c1n2CCN(CCN2CCCOCC2)c2ccccc2-1` [Example 24, 11-cyclohexyl-6-[2-(1,4-oxazepan-4-yl)ethyl]-5,6-dihydro-4H-1-thia-3b,6-diazabenzo[e]cyclopenta[a]azulene-2-carboxylic acid dihydrochloride], the IC50 on NS5B 1b and at NS5B 1a was 10 to 100 nM in each case.
As to `Cc1ccc2c(c1)N(CCN1CCCCCCC1)CCn1c-2c(C2CCCCC2)c2sc(C(=O)O)cc21` [Example 25, 6-[2-(azocan-1-yl)ethyl]-11-cyclohexyl-8-methyl-5,6-dihydro-4H-1-thia-3b,6-diazabenzo[e]cyclopenta[a]azulene-2-carboxylic acid dihydrochloride], the results for the IC50 on NS5B 1b and against NS5B 1a were less than 10 nM and 10 to 100 nM, respectively.
As to `Cc1ccc2c(c1)N(CCN1CCCC(C)C1)CCn1c-2c(C2CCCCC2)c2sc(C(=O)O)cc21` (stereo not drawn) [Example 26, 11-cyclohexyl-8-methyl-6-[2-(3-methylpiperidin-1-yl)ethyl]-5,6-dihydro-4H-1-thia-3b,6-diazabenzo[e]cyclopenta[a]azulene-2-carboxylic acid dihydrochloride], the IC50 on NS5B 1b and at NS5B 1a was 10 to 100 nM throughout.
With `COCC[C@@H]1CCCN(CCN2CCn3c(c(C4CCCCC4)c4sc(C(=O)O)cc43)-c3ccc(C)cc32)C1` [Example 27, (S)-11-cyclohexyl-6-{2-[3-(2-methoxyethyl)piperidin-1-yl]ethyl}-8-methyl-5,6-dihydro-4H-1-thia-3b,6-diazabenzo[e]cyclopenta[a]azulene-2-carboxylic acid dihydrochloride], the IC50 against NS5B 1b and against NS5B 1a was 10 to 100 nM each time.
